Measured values reported in patent US8710085B2, “Pyrrolidine-1,2-dicarboxamide derivatives” (Novartis AG, priority 2008, dated 2014).
pIC50: −log10 of the molar value. Like-named read-outs stand apart in the source and are kept apart here.

Assays:
Format in all cases: biochemical
PI3Kα = biological target: T1, PI3Kα (Homo sapiens, UniProt P42336); experiment: PI3K KinaseGlo assay, PI3Kα
T1 construct: p110α(21-1068)-His; made in house; host or cells: baculovirus, Tn5 insect cells

PI3Kβ = biological target: T2, PI3Kβ (Homo sapiens, UniProt P42338); experiment: PI3K KinaseGlo assay, PI3Kβ
T2 construct: p110β(2-1070)-His; made in house; host or cells: baculovirus, Tn5 insect cells
T2 sequence (P42338 with tags, fused parts or gaps): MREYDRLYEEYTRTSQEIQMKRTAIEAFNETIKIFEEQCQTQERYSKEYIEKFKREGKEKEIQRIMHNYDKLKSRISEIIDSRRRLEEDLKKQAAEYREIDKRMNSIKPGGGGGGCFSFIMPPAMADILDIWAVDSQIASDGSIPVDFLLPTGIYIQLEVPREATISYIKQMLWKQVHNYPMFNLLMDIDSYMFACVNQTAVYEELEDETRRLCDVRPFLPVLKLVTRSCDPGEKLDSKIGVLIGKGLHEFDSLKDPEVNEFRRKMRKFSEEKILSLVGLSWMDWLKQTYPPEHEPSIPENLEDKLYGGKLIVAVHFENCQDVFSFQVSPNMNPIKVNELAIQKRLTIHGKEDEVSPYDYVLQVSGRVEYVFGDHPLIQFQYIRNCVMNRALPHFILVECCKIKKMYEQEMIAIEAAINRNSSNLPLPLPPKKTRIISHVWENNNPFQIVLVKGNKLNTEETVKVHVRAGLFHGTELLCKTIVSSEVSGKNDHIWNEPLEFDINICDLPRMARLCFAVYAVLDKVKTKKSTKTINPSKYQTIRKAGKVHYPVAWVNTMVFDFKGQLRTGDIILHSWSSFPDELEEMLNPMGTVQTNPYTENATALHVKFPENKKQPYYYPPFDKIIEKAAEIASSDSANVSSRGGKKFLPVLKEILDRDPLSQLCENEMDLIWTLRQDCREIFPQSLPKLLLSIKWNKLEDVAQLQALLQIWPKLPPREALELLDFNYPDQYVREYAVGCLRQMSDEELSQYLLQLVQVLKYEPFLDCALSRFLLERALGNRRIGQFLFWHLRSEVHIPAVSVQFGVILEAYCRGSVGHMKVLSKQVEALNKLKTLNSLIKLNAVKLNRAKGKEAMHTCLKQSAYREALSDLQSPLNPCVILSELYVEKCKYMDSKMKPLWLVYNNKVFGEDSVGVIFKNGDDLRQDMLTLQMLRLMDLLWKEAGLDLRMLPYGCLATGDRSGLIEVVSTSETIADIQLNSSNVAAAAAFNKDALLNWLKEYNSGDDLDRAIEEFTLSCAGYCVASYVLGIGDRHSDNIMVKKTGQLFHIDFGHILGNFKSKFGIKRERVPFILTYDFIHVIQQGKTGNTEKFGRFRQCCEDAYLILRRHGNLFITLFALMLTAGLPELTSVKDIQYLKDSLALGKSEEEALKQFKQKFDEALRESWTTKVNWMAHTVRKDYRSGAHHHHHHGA
Experimental: (§1) PI3K KinaseGlo assay: 50 mL of compound dilutions were dispensed onto black 384-well low volume Non Binding Styrene (NBS) plates (Costar Cat. No. NBS#3676). L-a-phosphatidylinositol (PI), provided as 10 mg/ml solution in methanol, was transferred into a glass tube and dried under nitrogen beam. It was then resuspended in 3% OctylGlucoside (OG) by vortexing and stored at 4° C. The KinaseGlo Luminescent Kinase Assay (Promega, Madison/WI, USA) is a homogeneous HTS method of measuring kinase activity by quantifying the amount of ATP remaining in solution following a kinase reaction.
(§2) 5 μL of a mix of PI/OG with the PI3K subtype were added (Table 1). Kinase reactions were started by addition of 5 μl of ATP-mix containing in a final volume 10 μL 10 mM TRIS-HCl pH 7.5, 3 mM MgCl2, 50 mM NaCl, 0.05% CHAPS, 1 mM DTT and 1 μM ATP, and occurred at room temperature. […] The standard was used as a reference compound and included in all assay plates in the form of 16 dilution points in duplicate.
The PI3Kα, PI3Kβ and PI3Kδ constructs are fusion of p85α iSH2 domain and the respective p110 isoforms. The p85α fragment and p110 isoform genes were generated by PCR from first strand cDNA generated by RT-PCR from commercial RNA from placenta, testis and brain as described below. The PI3Kγ construct was obtained from Roger Williams lab, MRC Laboratory of Molecular Biology, Cambridge, UK (November, 2003) and is described (Pacold, Michael E.; Suire, Sabine; Perisic, Olga; Lara-Gonzalez, Samuel; Davis, Colin T.; Walker, Edward H.; Hawkins, Phillip T.; Stephens, Len; Eccleston, John F.; Williams, Roger L. Crystal structure and functional analysis of Ras binding to its effector phosphoinositide 3-kinase gamma. Cell (2000), 103(6), 931-943).
BV949: PCR products for the inter SH2 domain (iSH2) of the p85 PI3Kα, PI13Kβ and PI3Kδ subunit and for the full-length p110β subunit were generated and fused by overlapping PCR. […] The p11013 fragment was obtained by PCR using as template a p110β clone (from unknown source that was sequence verified) using primers gwG130-p04 (5′-[…]-[…]-3′) (SEQ ID NO: 9) which contains linker sequences and the 5′ end of p110β and gwG130-p06 (5′-[…]-[…]-3′) (SEQ ID NO: 10) which contains sequences of the 3′ end of p110-β fused to a Histidine tag. […] This final product was recombined in a Gateway (Invitrogen) […] into the donor vector pDONR201 (Invitrogen) to generate the ORF253 entry clone. This clone was verified by sequencing and used in a Gateway LR reaction (Invitrogen) to transfer the insert into the Gateway adapted pBlueBac4.5 (Invitrogen) vector for generation of the baculovirus expression vector LR280.
(§3) PI3Kα, PI3Kβ and PI3Kγ were purified in two chromatographic steps: immobilized metal affinity chromatography (IMAC) on a Ni sepharose resin (GE Healthcare) and gel filtration utilizing a Superdex 200 26/60 column (GE Healthcare). All buffers were chilled to 4° C. and lysis was performed chilled on ice. Column fractionation was performed at room temperature. All buffers used to purify PI3Kβ contained 0.05% Triton X100 in addition to what is described below.
The lysate was centrifuged at 45,000 g for 30 minutes, and the supernatant was loaded onto a pre-equilibrated IMAC column (3 mL resin/100 mL lysate). […] Protein was eluted with 20 mM Tris-Cl, pH 7.5, 0.5 M NaCl, 5% glycerol, 250 mM imidazole, 1 mM NaF, 0.1 μg/mL OAA, 5 mM BME, 1× Complete protease inhibitor cocktail—EDTA-free. Pertinent fractions were analyzed by SDS-PAGE and pooled accordingly. The protein was further purified by gel filtration on a Superdex 200 26/60 column equilibrated in 20 mM Tris-Cl, pH 7.5, 0.5 M NaCl, 5% glycerol, 1 mM NaF, 5 mM DTT, 1× Complete protease inhibitor cocktail—EDTA-free. Pertinent fractions were analyzed by SDS-PAGE and pooled accordingly.

PI3Kδ = biological target: T3, PI3Kδ (Homo sapiens, UniProt O00329); experiment: PI3K KinaseGlo assay, PI3Kδ; conditions: 10 nM enzyme, 1 μM ATP, 30 mins, room temperature, read-out: PI3Kd/IC50
T3 construct: p85iSH2(461-568)-GGGGGG-p110δ(2-1044)-His; made in house; host or cells: baculovirus, Tn5 insect cells
T3 sequence (O00329 with tags, fused parts or gaps): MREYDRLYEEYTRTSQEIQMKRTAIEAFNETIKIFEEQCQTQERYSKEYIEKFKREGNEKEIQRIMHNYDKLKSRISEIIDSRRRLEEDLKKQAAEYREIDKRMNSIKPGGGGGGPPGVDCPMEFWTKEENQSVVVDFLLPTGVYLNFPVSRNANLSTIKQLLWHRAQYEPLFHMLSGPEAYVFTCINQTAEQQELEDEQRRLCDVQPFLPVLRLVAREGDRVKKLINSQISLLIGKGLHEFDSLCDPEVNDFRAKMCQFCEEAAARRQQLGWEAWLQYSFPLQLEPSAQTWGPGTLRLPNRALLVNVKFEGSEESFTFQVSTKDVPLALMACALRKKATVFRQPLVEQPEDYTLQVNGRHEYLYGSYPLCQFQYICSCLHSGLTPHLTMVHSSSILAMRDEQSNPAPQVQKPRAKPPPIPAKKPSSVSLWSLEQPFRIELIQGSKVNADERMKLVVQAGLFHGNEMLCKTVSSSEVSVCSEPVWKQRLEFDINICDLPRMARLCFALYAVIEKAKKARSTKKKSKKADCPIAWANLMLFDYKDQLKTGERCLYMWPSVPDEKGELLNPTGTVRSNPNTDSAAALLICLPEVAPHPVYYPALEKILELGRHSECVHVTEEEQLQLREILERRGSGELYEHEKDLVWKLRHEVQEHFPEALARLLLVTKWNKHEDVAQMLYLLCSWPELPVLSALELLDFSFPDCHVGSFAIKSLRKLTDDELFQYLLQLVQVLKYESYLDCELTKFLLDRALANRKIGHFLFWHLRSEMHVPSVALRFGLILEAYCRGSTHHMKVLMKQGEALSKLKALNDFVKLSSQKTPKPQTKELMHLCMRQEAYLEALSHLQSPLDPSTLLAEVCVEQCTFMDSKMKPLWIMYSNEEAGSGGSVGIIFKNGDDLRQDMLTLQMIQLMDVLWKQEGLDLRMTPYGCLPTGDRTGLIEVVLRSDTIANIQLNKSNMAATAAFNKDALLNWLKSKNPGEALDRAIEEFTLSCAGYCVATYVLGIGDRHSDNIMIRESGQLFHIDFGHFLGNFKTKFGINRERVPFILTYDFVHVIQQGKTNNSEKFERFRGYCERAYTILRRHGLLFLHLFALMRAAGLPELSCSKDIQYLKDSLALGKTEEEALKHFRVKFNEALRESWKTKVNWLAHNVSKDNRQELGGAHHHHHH

PI3Kγ = biological target: T4, PI3Kγ (Homo sapiens, UniProt P48736, Q459R); experiment: PI3K KinaseGlo assay, PI3Kγ; conditions: 150 nM enzyme, 1 μM ATP, 90 mins, room temperature, read-out: PI3Kg/IC50
T4 construct: p110γ(Δ143-[Met144-1102])-His; made in house; host or cells: Tn5 insect cells; construct from Roger Williams lab, MRC LMB
T4 sequence (P48736 with tags, fused parts or gaps Q459R): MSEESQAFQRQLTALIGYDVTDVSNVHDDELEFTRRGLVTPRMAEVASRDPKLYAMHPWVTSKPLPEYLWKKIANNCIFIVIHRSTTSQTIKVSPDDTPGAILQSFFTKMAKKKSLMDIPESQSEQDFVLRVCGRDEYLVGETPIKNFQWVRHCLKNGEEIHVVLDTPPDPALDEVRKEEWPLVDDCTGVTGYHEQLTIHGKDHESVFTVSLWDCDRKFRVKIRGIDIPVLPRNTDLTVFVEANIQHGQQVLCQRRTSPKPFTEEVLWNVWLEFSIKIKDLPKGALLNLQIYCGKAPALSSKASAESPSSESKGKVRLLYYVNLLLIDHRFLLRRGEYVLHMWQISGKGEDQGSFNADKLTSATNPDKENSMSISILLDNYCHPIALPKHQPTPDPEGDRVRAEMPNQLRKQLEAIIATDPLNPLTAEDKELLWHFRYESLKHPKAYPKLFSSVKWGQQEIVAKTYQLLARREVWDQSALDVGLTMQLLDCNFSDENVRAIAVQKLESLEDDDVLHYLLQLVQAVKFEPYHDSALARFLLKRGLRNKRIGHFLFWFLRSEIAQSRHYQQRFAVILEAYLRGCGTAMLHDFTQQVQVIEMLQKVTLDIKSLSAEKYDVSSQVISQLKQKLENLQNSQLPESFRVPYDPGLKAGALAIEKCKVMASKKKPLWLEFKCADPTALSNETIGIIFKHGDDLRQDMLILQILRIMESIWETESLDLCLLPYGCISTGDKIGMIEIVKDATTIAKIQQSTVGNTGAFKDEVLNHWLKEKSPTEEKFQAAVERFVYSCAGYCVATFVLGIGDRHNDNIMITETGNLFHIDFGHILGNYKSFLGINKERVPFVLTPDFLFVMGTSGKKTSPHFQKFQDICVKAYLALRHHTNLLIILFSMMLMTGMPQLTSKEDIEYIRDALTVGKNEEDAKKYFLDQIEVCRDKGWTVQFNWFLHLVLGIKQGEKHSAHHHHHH
Experimental: as §1, with “L-a-phosphatidylinositol” for “PI3K KinaseGlo assay: 50 mL of compound dilutions were dispensed onto black 384-well low volume Non Binding Styrene (NBS) plates (Costar Cat. No. NBS#3676). L-a-phosphatidylinositol”
as §2, with “duplicate. […]” for “duplicate.”
as §3
The lysate was centrifuged at 45,000 g for 30 minutes, and the supernatant was loaded onto a pre-equilibrated IMAC column (3 mL resin/100 mL lysate). […] Protein was eluted with 20 mM Tris-Cl, pH 7.5, 0.5 M NaCl, 5% glycerol, 250 mM imidazole, 1 mM NaF, 0.1 μg/mL OAA, 5 mM BME, 1× Complete protease inhibitor cocktail—EDTA-free. Pertinent fractions were analyzed by SDS-PAGE and pooled accordingly. The protein was further purified by gel filtration on a Superdex 200 26/60 column equilibrated in 20 mM Tris-Cl, pH 7.5, 0.5 M NaCl, 5% glycerol, 1 mM NaF, 5 mM DTT, 1× Complete protease inhibitor cocktail—EDTA-free. Pertinent fractions were analyzed by SDS-PAGE and pooled accordingly. An equal volume of Dialysis Buffer (20 mM Tris-Cl, pH 7.5, 500 mM NaCl, 50% glycerol, 5 mM NaF, 5 mM DTT) was added to the pool and than dialyzed against Dialysis Buffer two changes (one change overnight). Protein was stored at −20° C.

[1] = KinaseGlo, 10 nM enzyme, 1 μM ATP, 30 mins, room temperature, read-out: PI3Ka/IC50
[2] = KinaseGlo, 25 nM enzyme, 1 μM ATP, 30 mins, room temperature, read-out: PI3Kb/IC50
[3] = KinaseGlo, 10 nM enzyme, 1 μM ATP, 30 mins, room temperature

T1 sequence (P42336 with tags, fused parts or gaps): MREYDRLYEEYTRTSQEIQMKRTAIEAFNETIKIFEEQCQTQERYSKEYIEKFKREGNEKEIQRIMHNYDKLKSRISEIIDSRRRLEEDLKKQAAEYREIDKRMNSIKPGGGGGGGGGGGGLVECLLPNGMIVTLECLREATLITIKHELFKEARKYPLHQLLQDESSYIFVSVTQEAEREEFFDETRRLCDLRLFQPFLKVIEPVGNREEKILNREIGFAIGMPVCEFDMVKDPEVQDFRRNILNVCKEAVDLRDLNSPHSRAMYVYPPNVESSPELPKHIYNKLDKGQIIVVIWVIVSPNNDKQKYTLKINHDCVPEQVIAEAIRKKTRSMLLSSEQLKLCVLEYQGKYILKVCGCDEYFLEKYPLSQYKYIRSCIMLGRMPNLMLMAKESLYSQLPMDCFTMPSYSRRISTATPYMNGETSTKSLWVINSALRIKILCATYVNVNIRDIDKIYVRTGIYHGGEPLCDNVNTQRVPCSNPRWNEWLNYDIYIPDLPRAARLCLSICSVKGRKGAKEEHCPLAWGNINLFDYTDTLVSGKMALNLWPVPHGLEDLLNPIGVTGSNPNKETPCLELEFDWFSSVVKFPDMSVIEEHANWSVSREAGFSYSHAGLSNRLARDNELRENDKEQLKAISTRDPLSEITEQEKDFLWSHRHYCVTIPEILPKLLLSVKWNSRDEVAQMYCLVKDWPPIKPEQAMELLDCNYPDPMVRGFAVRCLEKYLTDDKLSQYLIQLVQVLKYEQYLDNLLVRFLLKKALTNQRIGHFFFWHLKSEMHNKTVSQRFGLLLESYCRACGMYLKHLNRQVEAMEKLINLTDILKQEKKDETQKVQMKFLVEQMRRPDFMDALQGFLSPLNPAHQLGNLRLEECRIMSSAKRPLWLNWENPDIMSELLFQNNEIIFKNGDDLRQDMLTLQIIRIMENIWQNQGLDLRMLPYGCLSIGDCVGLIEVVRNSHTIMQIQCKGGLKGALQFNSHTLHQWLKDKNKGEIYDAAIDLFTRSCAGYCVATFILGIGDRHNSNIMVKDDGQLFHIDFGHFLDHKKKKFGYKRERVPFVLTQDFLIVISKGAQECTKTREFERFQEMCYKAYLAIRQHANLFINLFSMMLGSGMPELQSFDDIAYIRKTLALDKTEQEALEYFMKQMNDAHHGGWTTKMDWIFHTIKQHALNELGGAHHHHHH

Row | Compound | pIC50 (PI3Kα; [1]) | pIC50 (PI3Kβ; [2]) | pIC50 (PI3Kδ) | pIC50 (PI3Kγ) | PI3Ka/IC50 (PI3Kα; [3]) [umol I-1] | pIC50 (PI3Kβ) | pIC50 (PI3Kα)
1 | Cc1nc(NC(=O)N2CCC[C@H]2C(N)=O)sc1-c1ccnc(-c2ccccc2F)c1 [Example 3, (S)-Pyrrolidine-1,2-dicarboxylic acid 2-amide 1-({5-[2-(2-fluoro-phenyl)-pyridin-4-yl]-4-methyl-thiazol-2-yl}-amide)] | 7.17 | 5.64 | 6.36 | 6.44 |  |  | 
2 | CC(C)(c1cc(-c2sc(NC(=O)N3CCC[C@H]3C(N)=O)nc2Cl)ccn1)C(F)(F)F [Example 37, (S)-Pyrrolidine-1,2-dicarboxylic acid 2-amide 1-({4-chloro-5-[2-(2,2,2-trifluoro-1,1-dimethyl-ethyl)-pyridin-4-yl]-thiazol-2-yl}-amide)] |  | 5.26 | 6.41 | 5.35 | 0.039 |  | 
3 | Cc1nc(NC(=O)N2CCC[C@H]2C(N)=O)sc1-c1ccnc(Cc2c(Cl)cccc2Cl)n1 [Example 47, (S)-Pyrrolidine-1,2-dicarboxylic acid 2-amide 1-({5-[2-(2,6-dichloro-benzyl)pyrimidin-4-yl]-4-methyl-thiazol-2-yl}-amide)] | 7.03 | 5.54 | 6.81 | 5.73 |  |  | 
4 | COc1ccc(C2(c3cc(-c4sc(NC(=O)N5CCC[C@H]5C(N)=O)nc4C)ccn3)CC2)cc1 [Example 29, (S)-Pyrrolidine-1,2-dicarboxylic acid 2-amide 1-[(5-{2-[1-(4-methoxy-phenyl)-cyclopropyl]-pyridin-4-yl}-4-methyl-thiazol-2-yl)-amide]] | 7.25 | 5.21 | 6.09 | 6.16 |  |  | 
5 | Cc1nc(NC(=O)N2CCC[C@H]2C(N)=O)sc1-c1ccnc(C2(C)CC2)n1 [Example 42, (S)-Pyrrolidine-1,2-dicarboxylic acid 2-amide 1-({4-methyl-5-[2-(1-methylcyclopropyl)-pyrimidin-4-yl]-thiazol-2-yl}-amide)] |  |  | 6.54 | 6.07 |  | 5.50 | 
6 | CC(C)(c1cc(-c2cnc(NC(=O)N3CCC[C@H]3C(N)=O)s2)ccn1)C(F)(F)F [Example 12, (S)-Pyrrolidine-1,2-dicarboxylic acid 2-amide 1-({5-[2-(2,2,2-trifluoro-1,1-dimethyl-ethyl)-pyridin-4-yl]-thiazol-2-yl}-amide)] |  | 5.41 | 6.71 | 6.45 |  |  | 8.00
7 | Cc1nc(NC(=O)N2CCC[C@H]2C(N)=O)sc1-c1ccnc(C(C)(C)C(F)(F)F)n1 [Example 64, (S)-Pyrrolidine-1,2-dicarboxylic acid 2-amide 1-({4-methyl-5-[2-(2,2,2-trifluoro-1,1-dimethyl-ethyl)-pyrimidin-4-yl]-thiazol-2-yl}-amide)] | 8.00 | 6.16 | 7.49 | 6.35 |  |  | 
8 | Cc1nc(NC(=O)N2CCC[C@H]2C(N)=O)sc1-c1ccnc(-c2ccccc2F)n1 [Example 51, (S)-Pyrrolidine-1,2-dicarboxylic acid 2-amide 1-({5-[2-(2-fluoro-phenyl)pyrimidin-4-yl]-4-methyl-thiazol-2-yl}-amide)] | 6.95 | 5.05 | 6.16 | 5.46 |  |  | 
9 | Cc1nc(NC(=O)N2CCC[C@H]2C(N)=O)sc1-c1cncc(C2CC2)n1 [Example 66, (S)-Pyrrolidine-1,2-dicarboxylic acid 2-amide 1-{[5-(6-cyclopropyl-pyrazin-2-yl)-4-methyl-thiazol-2-yl]-amide}] | 7.89 | 5.56 | 6.53 | 6.36 |  |  | 
10 | Cc1nc(NC(=O)N2CCC[C@H]2C(N)=O)sc1-c1ccnc(C(C)(C)C)c1 [Example 1, (S)-Pyrrolidine-1,2-dicarboxylic acid 2-amide 1-{[5-(2-tert-butyl-pyridin-4-yl)-4-methyl-thiazol-2-yl]-amide}] |  | 5.35 | 6.01 | 6.17 |  |  | 
11 | NC(=O)[C@@H]1CCCN1C(=O)Nc1ncc(-c2ccnc(C3(C(F)(F)F)CCC3)c2)s1 [Example 13, (S)-Pyrrolidine-1,2-dicarboxylic acid 2-amide 1-({5-[2-(1-trifluoromethyl-cyclobutyl)-pyridin-4-yl]-thiazol-2-yl}-amide)] |  | 5.35 | 6.79 | 6.74 |  |  | 
12 | Cc1nc(NC(=O)N2CCC[C@H]2C(N)=O)sc1-c1ccnc(C2(C#N)CC2)c1 [Example 18, (S)-Pyrrolidine-1,2-dicarboxylic acid 2-amide 1-({5-[2-(1-cyano-cyclopropyl)pyridin-4-yl]-4-methyl-thiazol-2-yl}-amide)] |  | 5.38 | 6.27 | 6.21 | 0.019 |  | 
13 | COc1ccc(C(C)(C)c2cc(-c3sc(NC(=O)N4CCC[C@H]4C(N)=O)nc3C)ccn2)cc1 [Example 27, (S)-Pyrrolidine-1,2-dicarboxylic acid 2-amide 1-[(5-{2-[1-(4-methoxy-phenyl)-1-methyl-ethyl]-pyridin-4-yl}-4-methyl-thiazol-2-yl)-amide]] | 7.09 | 5.28 | 6.57 | 5.81 |  |  | 
